Source: publication PMC10313705, “Structure and transport mechanism of the human calcium pump SPCA1” (Cell Research, 2023)

What was measured:
hSPCA1 (hSPCA1a) [1] = target: T1, hSPCA1 (hSPCA1a) (Homo sapiens, UniProt P98194); assay: cryo-EM structure ([…] Å); assay type: binding; design: gene ATP2C1; full-length (Met1-Val919), C-terminal 2x Strep tag, expressed in HEK293F cells, purified in DDM/CHS then digitonin; residues 1-15 and 906-919 not modelled; details: CaE1P-ADP state; 5 mM ADP, 5 mM NaF, 1 mM AlCl3; Ca2+, Mg2+, pH 8.0
T1 sequence (P98194 1-919): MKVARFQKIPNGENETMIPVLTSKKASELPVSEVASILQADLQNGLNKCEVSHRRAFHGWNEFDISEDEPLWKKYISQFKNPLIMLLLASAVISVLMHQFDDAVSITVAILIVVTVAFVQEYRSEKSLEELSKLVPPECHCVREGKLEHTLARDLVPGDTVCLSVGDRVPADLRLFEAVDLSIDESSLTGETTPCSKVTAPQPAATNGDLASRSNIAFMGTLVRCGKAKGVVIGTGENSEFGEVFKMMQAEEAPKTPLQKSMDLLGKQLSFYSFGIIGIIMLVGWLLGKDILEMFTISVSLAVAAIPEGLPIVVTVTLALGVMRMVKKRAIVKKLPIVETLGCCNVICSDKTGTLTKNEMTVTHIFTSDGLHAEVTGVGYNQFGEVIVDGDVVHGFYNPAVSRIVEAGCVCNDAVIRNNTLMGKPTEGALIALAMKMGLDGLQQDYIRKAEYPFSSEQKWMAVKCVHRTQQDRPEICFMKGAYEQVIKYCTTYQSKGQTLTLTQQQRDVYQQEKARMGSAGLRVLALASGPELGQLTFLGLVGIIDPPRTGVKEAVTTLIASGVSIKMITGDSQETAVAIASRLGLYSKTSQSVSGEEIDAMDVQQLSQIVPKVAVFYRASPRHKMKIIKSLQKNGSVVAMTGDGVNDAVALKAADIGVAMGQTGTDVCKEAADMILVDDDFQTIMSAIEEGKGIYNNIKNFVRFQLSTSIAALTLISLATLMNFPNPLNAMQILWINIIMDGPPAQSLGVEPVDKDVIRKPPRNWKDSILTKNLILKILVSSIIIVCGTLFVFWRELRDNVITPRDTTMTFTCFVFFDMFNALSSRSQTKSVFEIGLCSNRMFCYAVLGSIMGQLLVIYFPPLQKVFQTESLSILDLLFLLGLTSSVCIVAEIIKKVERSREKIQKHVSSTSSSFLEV

hSPCA1 (hSPCA1a) [2] = target: T1, hSPCA1 (hSPCA1a); design: gene ATP2C1; details: ATP hydrolysis by purified protein in digitonin
hSPCA1 (hSPCA1a) [3] = target: T1, hSPCA1 (hSPCA1a); assay: cryo-EM structure; assay type: binding; design: gene ATP2C1; full-length (Met1-Val919), C-terminal 2x Strep tag, expressed in HEK293F cells, purified in DDM/CHS then digitonin; residues 1-15 and 906-919 not modelled; details: phosphate transition-state analogue at Asp350; E2~P state; 10 mM NaF, 2 mM AlCl3, Mg2+, no added Ca2+, pH 8.0
hSPCA1 (hSPCA1a) [4] = target: T1, hSPCA1 (hSPCA1a); design: gene ATP2C1; details: phosphate analogue at Asp350; 10 mM NaF, 2 mM BeSO4, 1 mM CaCl2, Mg2+, pH 8.0; CaE2P (8IWS) and early E2P (8IWT) states

Nc1ncnc2c1ncn2[C@@H]1O[C@H](COP(=O)(O)OP(=O)(O)O)[C@@H](O)[C@H]1O [ADP]
cryo-EM structure (3.71 Å) (hSPCA1 (hSPCA1a) [1]): the ADP molecule (dark gray) in the CaE1P-ADP state

Nc1ncnc2c1ncn2[C@@H]1O[C@H](COP(=O)(O)OP(=O)(O)OP(=O)(O)O)[C@@H](O)[C@H]1O [ATP]
ATPase assay, Pi release kit (absorbance at 636 nm) (hSPCA1 (hSPCA1a) [2]): an ATPase activity assay demonstrated that it has ATP hydrolysis activity

[F][Al-]([F])([F])[F] [AlF4^–]
cryo-EM structure (hSPCA1 (hSPCA1a) [3]): The EM densities derived from AlF4^– were clearly visible near Asp350

[F][Be-]([F])[F] [BeF3^–]
cryo-EM structures (3.42 Å CaE2P; 3.25 Å early E2P) (hSPCA1 (hSPCA1a) [4]): allowed us to trace the BeF3^– densities which were clearly visible near Asp350
